We go through 17 compounds from ChEMBL document CHEMBL5214933, “Discovery of Selenium-Containing STING Agonists as Orally Available Antitumor Agents” (J Med Chem, 2022).

Converted amounts (≈) assume the structure as drawn. The source made the active and inactive calls. The rule behind the calls is not given here.

What is called ΔTm is the shift of the melting midpoint relative to a reference. One may read the thermodynamic solubility as the concentration in solution at equilibrium with solid. In general, logP refers to a log measure of how a compound divides between an organic and an aqueous phase. Read a high logP as higher lipophilicity. Broadly, the inhibition is how much of the control response was suppressed. In general, Cmax refers to the maximum level reached in the sampled fluid or tissue. Broadly, the AUC(0-inf) is total exposure, with the tail of the curve extrapolated. Read a high AUC(0-inf) as high exposure. In general, half-life refers to the time in which the quantity being followed falls by half. High values mean slow decline, low ones rapid decline. Broadly, the CL/F is the apparent clearance, not corrected for the fraction that reaches the circulation. Broadly, the clearance is the volume of plasma or blood freed of the substance per unit of time. Low values mean a low capacity for elimination, high ones a high capacity for elimination. For orientation: bioavailability means the share of a dose that reaches the circulation, judged against a reference dose that is usually intravenous. A word on the EC50: it is the midpoint of the concentration-response curve.

Data set [1] addresses T1, Stimulator of interferon genes protein (Homo sapiens, UniProt Q86WV6). Put plainly: Agonist activity at STING in human THP-1 cells harboring IRF-inducible luciferase reporter construct assessed as fold change in ISG signalling at 20 uM incubated for 12 hrs by Quanti-luc reagent based assay relative to control. Format: cell-based. As to conditions: filed as agonist. For orientation: A reporter such as luciferase makes a cellular process visible.

Data set [2] relates to Stimulator of interferon genes protein (Homo sapiens), Q86WV6 [UNDEFINED MUTATION]. Put plainly: Binding affinity to recombinant human STING H232 variant expressed in Escherichia coli BL21 (DE3) assessed as thermal stabilization by measuring change in melting temperature at 2 mM incubated for 30 mins by SYPRO orange dye based differential scanning fluorimetry assay. Background: In DSF a fluorescence change marks the thermal transition of the protein.
Sequence of Stimulator of interferon genes protein (Homo sapiens), Q86WV6 [UNDEFINED MUTATION] (Q86WV6 whole entry, looked up, stated change not applied): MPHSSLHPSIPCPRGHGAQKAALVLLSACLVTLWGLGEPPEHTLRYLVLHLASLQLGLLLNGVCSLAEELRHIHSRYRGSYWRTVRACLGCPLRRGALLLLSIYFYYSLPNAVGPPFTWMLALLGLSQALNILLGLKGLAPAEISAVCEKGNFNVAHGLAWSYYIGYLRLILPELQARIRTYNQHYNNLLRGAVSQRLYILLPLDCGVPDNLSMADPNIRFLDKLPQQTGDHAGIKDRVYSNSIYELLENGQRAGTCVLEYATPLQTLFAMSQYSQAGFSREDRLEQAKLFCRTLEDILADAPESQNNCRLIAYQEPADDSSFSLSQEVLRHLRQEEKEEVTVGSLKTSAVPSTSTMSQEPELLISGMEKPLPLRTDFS

Data set [3] can be described thus: Aqueous solubility of compound at 3 mg incubated for 24 hrs under shaking condition by RP-HPLC analysis. The format is physicochemical. As to conditions: water.
The nature of data set [4]: Solubility of compound in PBS buffer at pH 7.4 at 3 mg incubated for 24 hrs under shaking condition by RP-HPLC analysis. Format: physicochemical.
Data set [5] can be described thus: Lipophilicity, logP of compound by RP-HPLC analysis. The format is physicochemical.
Data set [6] in a line: Permeability of the compound in PBS buffer incubated for 5 hrs by PAMPA-based LC-MS/MS analysis. The format is ADME. As to conditions: read-out: permeability.
Data set [7] can be described thus: Protein binding in plasma (unknown origin) assessed as unbound fraction at 2 uM incubated for 4 hrs under shaking condition by rapid equilibrium dialysis method. The format is ADME, cell-free.
Data set [8] is described as follows: Stability in rat liver microsomes assessed as parent compound remaining at 1 uM incubated for 2 hrs in presence of NADPH by LC-MS/MS analysis. The format is ADME, Microsome. The following applies: read-out: Stability.
The nature of data set [9]: Stability in human plasma assessed as parent compound remaining at 1 uM incubated for 24 hrs in presence of NADPH by LC-MS/MS analysis. The following applies: read-out: Stability. The format is ADME, cell-free.
Data set [10] concerns the target CYP3A4 (Homo sapiens, UniProt P08684). The data set can be described thus: Inhibition of recombinant CYP3A4 (unknown origin) using midazolam as substrate assessed as reduction in substrate hydroxylation at 10 uM incubated for 5 mins in presence of NADPH by LC-MS/MS analysis relative to control. Format: ADME. The following applies: recombinant CYP3A4, probe midazolam.

For data set [11], the target named is hERG (Homo sapiens, UniProt Q12809). The data set can be described thus: Inhibition of hERG expressed in HEK293 cells at 10 uM incubated for 5 mins by QPatch automated patch-clamp technique relative to control. The format is toxicity, cell-based. As to conditions: HEK293 cells that express hERG. Background: Block of hERG is tested as a sign of cardiac risk.
Sequence of hERG (Q12809 whole entry): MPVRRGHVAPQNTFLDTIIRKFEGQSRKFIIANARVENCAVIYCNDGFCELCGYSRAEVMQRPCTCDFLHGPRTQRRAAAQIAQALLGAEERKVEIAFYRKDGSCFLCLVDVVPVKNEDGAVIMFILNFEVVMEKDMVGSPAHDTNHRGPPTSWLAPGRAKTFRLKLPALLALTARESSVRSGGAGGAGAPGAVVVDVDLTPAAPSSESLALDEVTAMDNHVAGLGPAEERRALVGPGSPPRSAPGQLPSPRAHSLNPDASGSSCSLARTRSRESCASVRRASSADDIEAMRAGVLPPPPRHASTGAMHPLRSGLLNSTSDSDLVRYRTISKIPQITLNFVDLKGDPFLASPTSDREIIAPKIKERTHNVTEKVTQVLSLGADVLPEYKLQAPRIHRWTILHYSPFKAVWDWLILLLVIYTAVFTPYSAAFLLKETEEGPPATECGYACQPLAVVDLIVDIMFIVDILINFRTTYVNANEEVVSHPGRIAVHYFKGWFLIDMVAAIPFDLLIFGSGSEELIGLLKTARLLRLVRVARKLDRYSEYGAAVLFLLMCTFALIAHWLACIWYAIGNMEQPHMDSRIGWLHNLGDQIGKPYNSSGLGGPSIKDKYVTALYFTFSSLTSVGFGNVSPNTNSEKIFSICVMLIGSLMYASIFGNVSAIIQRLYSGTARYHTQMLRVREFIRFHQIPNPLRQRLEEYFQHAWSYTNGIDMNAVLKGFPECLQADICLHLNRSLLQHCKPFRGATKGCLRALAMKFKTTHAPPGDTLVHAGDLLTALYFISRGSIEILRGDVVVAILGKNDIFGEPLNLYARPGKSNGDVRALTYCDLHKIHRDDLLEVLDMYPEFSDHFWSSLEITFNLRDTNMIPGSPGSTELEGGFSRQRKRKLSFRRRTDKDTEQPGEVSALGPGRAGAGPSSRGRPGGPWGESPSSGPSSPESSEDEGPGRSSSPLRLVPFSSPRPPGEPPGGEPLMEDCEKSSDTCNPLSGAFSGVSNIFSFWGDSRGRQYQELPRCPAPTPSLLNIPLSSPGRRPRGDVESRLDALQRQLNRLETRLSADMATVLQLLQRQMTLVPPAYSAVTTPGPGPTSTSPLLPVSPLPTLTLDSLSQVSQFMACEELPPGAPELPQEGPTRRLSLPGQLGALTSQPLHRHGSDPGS

Data set [12] in a line: Cmax in Sprague-Dawley rat at 50 mg/kg, po measured for 1440 mins by LC-MS/MS analysis. Details: time 1440 min, dose 50 mg/kg, route po. Format: ADME, organism-based. The following applies: in vivo.
A short description of data set [13]: AUC (0 to infinity) in Sprague-Dawley rat at 50 mg/kg, po measured for 1440 mins by LC-MS/MS analysis. Details: time 1440 min, dose 50 mg/kg, route po. Format: ADME, organism-based. The following applies: in vivo.
The nature of data set [14]: AUC (0 to infinity) in Sprague-Dawley rat at 5 mg/kg, iv measured for 1440 mins by LC-MS/MS analysis. The format is ADME, organism-based. On the set-up: dose 5 mg/kg, time 1440 min, route iv. The following applies: in vivo.
Data set [15] is described as follows: Half life in Sprague-Dawley rat at 50 mg/kg, po measured for 1440 mins by LC-MS/MS analysis. The format is ADME, organism-based. The following applies: in vivo.
A short description of data set [16]: Half life in Sprague-Dawley rat at 5 mg/kg, iv measured for 1440 mins by LC-MS/MS analysis. As to conditions: in vivo. The format is ADME, organism-based.
Data set [17] can be described thus: Volume of distribution at steady state in Sprague-Dawley rat at 50 mg/kg, po measured for 1440 mins by LC-MS/MS analysis. The format is ADME, organism-based. As to conditions: in vivo, 24 h.
Data set [18] in a line: Volume of distribution at steady state in Sprague-Dawley rat at 5 mg/kg, iv measured for 1440 mins by LC-MS/MS analysis. Format: ADME, organism-based. As to conditions: in vivo, read-out: Vdss.
The nature of data set [19]: Clearance in Sprague-Dawley rat at 50 mg/kg, po measured for 1440 mins by LC-MS/MS analysis. Format: ADME, organism-based. As to conditions: in vivo.
Data set [20] is described as follows: Clearance in Sprague-Dawley rat at 5 mg/kg, iv measured for 1440 mins by LC-MS/MS analysis. The following applies: in vivo. The format is ADME, organism-based.
The nature of data set [21]: Oral bioavailability in Sprague-Dawley rat at 50 mg/kg measured for 1440 mins by LC-MS/MS analysis. The format is ADME, organism-based. The following applies: in vivo.
Data set [22] has as its system 4T1. Put plainly: Antitumor activity against mouse 4T1 cells implanted in naive BALB/c mouse assessed as increase in Ki67-positive CD4 T cells in tumor at 80 mg/kg, po administered once every 5 days by FACS analysis (reference value: 4.4%). The following applies: time 5 day. Format: functional.
The test system of data set [23] is 4T1. The data set can be described thus: Antitumor activity against mouse 4T1 cells implanted in naive BALB/c mouse assessed as increase in Ki67-positive CD8 T cells in tumor at 80 mg/kg, po administered once every 5 days by FACS analysis (reference value: 14%). As to conditions: time 5 day. Format: functional.
Data set [24] has as its system Stimulator of interferon genes protein (Homo sapiens), Q86WV6 [UNDEFINED MUTATION]. The data set can be described thus: Binding affinity to recombinant human STING R232 variant expressed in Escherichia coli BL21 (DE3) assessed as thermal stabilization by measuring change in melting temperature at 0.1 mM incubated for 30 mins by SYPRO orange dye based differential scanning fluorimetry assay.

Data set [25] shares this test system. Put plainly: Binding affinity to recombinant human STING AQ variant expressed in Escherichia coli BL21 (DE3) assessed as thermal stabilization by measuring change in melting temperature at 0.1 mM incubated for 30 mins by SYPRO orange dye based differential scanning fluorimetry assay.
Data set [26] has as its target T1, Stimulator of interferon genes protein. Put plainly: Agonist activity at STING in human THP-1 cells harboring IRF-inducible luciferase reporter construct assessed as increase in ISG signalling incubated for 12 hrs by Quanti-luc reagent based assay. Format: cell-based.
Data set [27] shares this target. The data set can be described thus: Agonist activity at STING in cGAS knockout human THP-1 cells harboring IRF-inducible luciferase reporter construct assessed as increase in ISG signalling at 20 uM incubated for 12 hrs by Quanti-luc reagent based assay. The format is cell-based. The following applies: filed as agonist.
For data set [28], the target named is T2, Stimulator of interferon genes protein (Mus musculus) (UniProt Q3TBT3).
T2 sequence (whole entry): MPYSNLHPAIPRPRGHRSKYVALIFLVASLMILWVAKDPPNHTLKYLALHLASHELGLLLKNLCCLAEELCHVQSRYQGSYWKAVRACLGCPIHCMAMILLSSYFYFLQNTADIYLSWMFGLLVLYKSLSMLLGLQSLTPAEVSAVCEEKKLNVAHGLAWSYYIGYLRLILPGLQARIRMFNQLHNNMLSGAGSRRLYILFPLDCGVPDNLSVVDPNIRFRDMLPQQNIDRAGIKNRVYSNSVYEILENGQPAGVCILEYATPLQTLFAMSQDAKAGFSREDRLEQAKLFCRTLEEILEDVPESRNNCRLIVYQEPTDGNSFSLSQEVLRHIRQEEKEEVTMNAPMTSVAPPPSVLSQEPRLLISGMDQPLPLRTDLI
The data set can be described thus: Agonist activity at STING in mouse RAW264.7 cells harboring IRF-inducible luciferase reporter construct assessed as increase in ISG signalling at 20 uM incubated for 12 hrs by Quanti-luc reagent based assay. Format: cell-based. As to conditions: filed as agonist.

T1 sequence (Q86WV6 whole entry): as the sequence (Q86WV6 whole entry, looked up, stated change not applied) above
Sequence of CYP3A4 (P08684 whole entry): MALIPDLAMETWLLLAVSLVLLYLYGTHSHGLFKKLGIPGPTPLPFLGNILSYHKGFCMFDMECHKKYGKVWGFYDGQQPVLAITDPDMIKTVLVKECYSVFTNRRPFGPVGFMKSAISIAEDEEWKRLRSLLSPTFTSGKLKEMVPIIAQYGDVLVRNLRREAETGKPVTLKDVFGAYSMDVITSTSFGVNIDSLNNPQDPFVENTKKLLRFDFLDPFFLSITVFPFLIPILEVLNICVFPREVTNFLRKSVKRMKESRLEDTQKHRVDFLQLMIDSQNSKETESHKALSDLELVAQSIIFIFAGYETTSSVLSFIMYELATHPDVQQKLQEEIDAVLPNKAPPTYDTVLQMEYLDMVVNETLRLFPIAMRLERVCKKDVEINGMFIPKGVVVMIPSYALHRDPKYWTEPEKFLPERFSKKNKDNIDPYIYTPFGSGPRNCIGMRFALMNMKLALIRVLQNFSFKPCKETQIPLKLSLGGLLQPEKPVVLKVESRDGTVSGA

`CCCC(CC(=O)c1cc2cc(OC)c(OC)cc2[se]1)C(=O)O` (racemic): in data set [1], the fold change (FC) was found to be 14. Moreover, the ΔTm in data set [2] was -1.2 °C.

In the case of `COc1ccc2[se]c(C(=O)CC(C)C(=O)O)cc2c1` (racemic), the ΔTm in [2] is -0.3 °C.

Turning to `CC(CC(=O)c1cc2cc3c(cc2[se]1)OCO3)C(=O)O` (racemic), in data set [2], the ΔTm was -0.5 °C.

Regarding `COc1cc2cc(C(=O)CC(C(=O)O)C(C)C)[se]c2cc1OC` (racemic), the fold change (FC) in [1] came out at 10. In [2], the ΔTm is -1.9 °C.

Take `COc1cc2cc(C(=O)CCC(=O)O)sc2cc1OC`: the solubility (thermodynamic) at 24 h is 6 µg/mL (≈ 20.4 µM) in data set [3] and 300 µg/mL (≈ 1020 µM) in data set [4]. The logP in data set [5] came out at 1.5. Moreover, the Papp at 5 h in data set [6] was 1.7 ×10⁻⁶ cm/s. In addition, the Fu in data set [7] is given as 0.19%. For the same compound, in [8], the remaining at 2 h, 1 µM came out at 87%. The remaining at 24 h, 1 µM in [9] worked out at 100%. In addition, the inhibition at 5 min, 10 µM in data set [10] came to 7.59%; in [11], 0.86%. Moreover, the Cmax in data set [12] stood at 23300 ng/mL. The area under the curve AUC(0-inf) is 56800 ng·h/mL in data set [13] and 9800 ng·h/mL in data set [14]. For the same compound, the half-life in data set [15] is 1.65 h; in data set [16] it was 1.71 h. For the same compound, the Vdss in [17] amounted to 2.18 L/kg. Moreover, the Vd in [18] was found to be 1.28 L/kg. Besides, in data set [19], the CL/F is 15.2 mL/min/kg. In data set [20], this compound gave a clearance of 8.5 mL/min/kg. In addition, the bioavailability in [21] was 58%. Besides, the Activity came out at 5.5% in [22] and 7.7% in data set [23]. Also, the fold change (FC) in data set [1] came to 32. In addition, the ΔTm in data set [2] was found to be 3.9 °C; in data set [24], 9.1 °C; in data set [25], 23.3 °C.

Turning to `CCC(CC(=O)c1cc2cc(OC)c(OC)cc2o1)C(=O)O` (racemic), in data set [2], the ΔTm is -0.1 °C.

As for `COc1cc2cc(C(=O)C3CC3C(=O)O)[se]c2cc1OC` (racemic), the fold change (FC) in [1] came out at 7. In [2], the ΔTm stood at 6.2 °C.

On to `CCC(=O)C(C)CC(=O)c1cc2cc(OC)c(OC)cc2[se]1` (stereo not given), for which, in [1], the fold change (FC) stood at 15. Moreover, the ΔTm in data set [2] is -0.2 °C.

Take `COc1cc2cc(C(=O)CC(C)C(N)=O)[se]c2cc1OC` (racemic): the ΔTm in [2] is -0.8 °C.

For the compound `COCC(CC(=O)c1cc2cc(OC)c(OC)cc2[se]1)C(=O)O` (racemic), the fold change (FC) in [1] amounted to 7. In addition, the ΔTm in data set [2] was found to be 0.9 °C.

On to `CCC(CC(=O)c1cc2cc(OC)c(OC)cc2s1)C(=O)O` (racemic), for which, in data set [1], the fold change (FC) came out at 18. The ΔTm in data set [2] was found to be 4.7 °C.

As for `COc1cc2cc(C(=O)CC(C)(C)C(=O)O)[se]c2cc1OC`, the fold change (FC) in data set [1] is 5. In addition, the ΔTm in [2] was -1.5 °C.

For the compound `COc1cc2cc(C(=O)C3CCC3C(=O)O)[se]c2cc1OC` (racemic), the fold change (FC) in data set [1] is 24. The thermal shift (ΔTm) in data set [2] is 9.1 °C.

With `COc1cc2cc(C(=O)CCC(=O)O)[se]c2cc1OC`, the fold change (FC) in [1] came to 2. Moreover, the ΔTm in data set [2] is -1.1 °C.

For `CCC(CC(=O)c1cc2cc(OC)c(OC)cc2[se]1)C(=O)O` (racemic), in data set [1], the fold change (FC) came out at 27. The ΔTm in data set [2] worked out at 4.5 °C.

Take `COc1ccc2cc(C(=O)CC(C)C(=O)O)[se]c2c1` (racemic): the shift in melting temperature (ΔTm) in [2] is -0.1 °C.

As to `COc1cc2cc(C(=O)CC(C)C(=O)O)[se]c2cc1OC` (racemic), the fold change (FC) in data set [1] came out at 15. The ΔTm in data set [2] was 2.7 °C. The EC50 in [26] was 21.3 µM. In addition, the result in data set [27] and in data set [28] was Active.
